Here are results for four compounds from ChEMBL document CHEMBL1201862, “PubChem BioAssay data set” (2004).

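In this assay, cells in 96-well plates receive the compound at five concentrations for 48 hours. Endpoints are linearly interpolated between the surrounding concentrations. Here, GI50 denotes the concentration required for 50% inhibition of growth.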 Active and inactive are the calls of the source. No stated cut-off is given here; in the data, active = GI50 up to about 1.1 µM and inactive = higher.

Some test systems named below: MDA-N; HOP-18; KM-20L2; DMS-273; DLD-1.
What all share (experiment): NCI-60 cell line screen, 48 h

For the compound `O=C1N(Cc2ccccc2)C2CSCC2N1Cc1ccccc1` (stereo unspecified), in the experiment on MDA-N, the GI50 was 30.2 µM (inactive).

Take `Cc1cc(C)n(-c2nsc3ccccc23)n1`: the GI50 is 15.8 µM (inactive) in the experiment on HOP-18, > 100 µM (inactive) in the experiment with KM-20L2 and > 100 µM (inactive) in the experiment with DMS-273.

Turning to `O=C(NC(=O)c1cn(CCN2CCNCC2)c(=O)[nH]c1=O)OCc1ccccc1`, in the experiment with DLD-1, the GI50 was > 100 µM (inactive).

Consider `CCOC(=O)C(NC(=O)CC)(Nc1ccccc1F)C(F)(F)F` (stereo unspecified), for which the GI50 with MDA-N is > 100 µM (inactive).
